Experimental data taken from ChEMBL document CHEMBL1134054, “p38 kinase inhibitors for the treatment of arthritis and osteoporosis: thienyl, furyl, and pyrrolyl ureas” (Bioorg Med Chem Lett, 2001).

Key:
[1] = target: T1, Mitogen-activated protein kinase 14 (Homo sapiens, UniProt Q16539); experiment: Percent inhibition determined in vitro against mitogen-activated protein kinase p38 alpha 2 derived from Escherichia coli at 5 uM
[2] = target: T1, Mitogen-activated protein kinase 14; experiment: In vitro inhibition of mitogen-activated protein kinase p38 alpha 2 derived from Escherichia coli
SW1353 = experiment: Inhibition of IL-6 production by SW1353 cells treated with both cytokines IL-1 and TNF-alpha.; type: functional, cell-based; details: Homo sapiens
[3] = target: T1, Mitogen-activated protein kinase 14; experiment: Inhibition of Mitogen-activated protein kinase p38 alpha 2
[4] = target: T1, Mitogen-activated protein kinase 14; experiment: Inhibition of p38 alpha-2 kinase

T1 sequence (Q16539 whole entry): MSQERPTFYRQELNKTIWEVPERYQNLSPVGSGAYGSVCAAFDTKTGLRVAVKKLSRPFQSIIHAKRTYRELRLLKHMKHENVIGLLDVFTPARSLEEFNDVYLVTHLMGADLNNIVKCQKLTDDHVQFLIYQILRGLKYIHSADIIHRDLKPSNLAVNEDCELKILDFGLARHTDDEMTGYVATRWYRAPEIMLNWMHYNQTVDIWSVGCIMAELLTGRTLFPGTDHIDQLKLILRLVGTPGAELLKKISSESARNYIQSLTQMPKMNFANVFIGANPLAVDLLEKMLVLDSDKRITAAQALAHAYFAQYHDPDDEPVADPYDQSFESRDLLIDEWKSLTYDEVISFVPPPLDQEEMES

Compound	inhibition [1] [%]	IC50 [2] [nM]	other results
COC(=O)c1sc(C(C)(C)C)cc1NC(=O)Nc1ccc(C(=O)O)cc1	4		
COC(=O)c1sc(C(C)(C)C)cc1NC(=O)Nc1ccc(N)cc1	40	750	
Cc1ccc(NC(=O)Nc2cc(C(C)(C)C)sc2C(=O)OCCCO)cc1			IC50 [3]: 56 nM
COC(=O)c1sc(C(C)(C)C)cc1NC(=O)Nc1ccc(OC)cc1	8		
COC(=O)c1sc(C(C)(C)C)cc1NC(=O)Nc1ccc([N+](=O)[O-])cc1	16		
COCCOC(=O)c1sc(C(C)(C)C)cc1NC(=O)Nc1ccc(C)cc1			IC50 [3]: 464 nM
COC(=O)c1sc(C(C)(C)C)cc1NC(=O)Nc1ccc(O)cc1	44	610	
COC(=O)c1sc(C(C)(C)C)cc1NC(=O)Nc1ccc(C(C)C)cc1	10		
CCOC(=O)c1sc(C(C)(C)C)cc1NC(=O)Nc1ccc(C)cc1			IC50 [3]: 3020 nM
COC(=O)c1c(NC(=O)Nc2ccc(C)cc2)cc(C(C)(C)C)n1C		400	
COC(=O)c1sc(N)cc1NC(=O)Nc1ccc(C)cc1	90		IC50 [3]: 441 nM
COC(=O)c1sc(C(C)(C)C)cc1NC(=O)Nc1ccc(NC(C)=O)cc1	23		
COC(=O)c1sc(-c2ccccc2)cc1NC(=O)Nc1ccc(C)cc1	0		
COC(=O)c1sc(C(C)(C)O)cc1NC(=O)Nc1ccc(C)cc1	34		
COC(=O)COC(=O)c1sc(C(C)(C)C)cc1NC(=O)Nc1ccc(C)cc1			IC50 [3]: 5310 nM
CCCOC(=O)c1sc(C(C)(C)C)cc1NC(=O)Nc1ccc(C)cc1			IC50 [3]: 482 nM
COC(=O)c1sc([N+](=O)[O-])cc1NC(=O)Nc1ccc(C)cc1	0		
COC(=O)c1sc(CCc2ccccc2)cc1NC(=O)Nc1ccc(C)cc1	17		
COC(=O)c1sc(CCC(C)C)cc1NC(=O)Nc1ccc(C)cc1	8		
Cc1ccc(NC(=O)Nc2cc(C(C)(C)C)sc2C(=O)OCCO)cc1			IC50 [3]: 57 nM
COC(=O)c1sc(C(C)C)cc1NC(=O)Nc1ccc(C)cc1	37		
COC(=O)c1sc(C(C)(C)C)cc1NC(=O)Nc1ccc(C(C)=O)cc1	21		
CNC(=O)c1sc(C(C)(C)C)cc1NC(=O)Nc1ccc(C)cc1			IC50 [3]: 34 nM; IC50 (SW1353): 1350 nM
CCc1ccc(NC(=O)Nc2cc(C(C)(C)C)sc2C(=O)OC)cc1	40	660	
COC(=O)c1sc(CC(C)C)cc1NC(=O)Nc1ccc(C)cc1	0		
COC(=O)c1sc(C(C)(C)C)cc1NC(=O)Nc1ccc(-c2ccccc2)cc1	6		
Cc1ccc(NC(=O)Nc2cc(C(C)(C)C)sc2C(=O)OC(C)C)cc1			IC50 [3]: 741 nM

Second part, led by results:

inhibition [1] [%]	IC50 [2] [nM]	Compound	other results
76	220	COC(=O)c1sc(C(C)(C)C)cc1NC(=O)Nc1ccc(Cl)cc1	
	12	COC(=O)c1[nH]c(C(C)(C)C)cc1NC(=O)Nc1cccc2ccccc12	IC50 (SW1353): 309 nM
85	60	COC(=O)c1[nH]c(C(C)(C)C)cc1NC(=O)Nc1ccccc1Cl	
	33	COC(=O)c1[nH]c(C(C)(C)C)cc1NC(=O)Nc1ccc(C)cc1	IC50 (SW1353): 1140 nM
67	210	COC(=O)c1oc(C(C)(C)C)cc1NC(=O)Nc1ccc(F)cc1	
67	253	COC(=O)c1c(NC(=O)Nc2cccc3ccccc23)cc(C(C)(C)C)n1C	
79	180	COC(=O)c1sc(C(C)(C)C)cc1NC(=O)Nc1cccc(Cl)c1Cl	
50	387	COC(=O)c1c(NC(=O)Nc2cccc(Cl)c2Cl)cc(C(C)(C)C)n1C	
	67	CNC(=O)c1[nH]c(C(C)(C)C)cc1NC(=O)Nc1ccc(C)cc1	IC50 (SW1353): 15 nM
42	663	COC(=O)c1c(NC(=O)Nc2ccc(F)cc2)cc(C(C)(C)C)n1C	
95	27	COC(=O)c1[nH]c(C(C)(C)C)cc1NC(=O)Nc1cccc(Cl)c1	
80	88	CNC(=O)c1sc(C(C)(C)C)cc1NC(=O)Nc1ccc(F)cc1	
92	43	COC(=O)c1[nH]c(C(C)(C)C)cc1NC(=O)Nc1ccc(Cl)cc1	
68	290	COC(=O)c1sc(C(C)(C)C)cc1NC(=O)Nc1ccccc1	
32	947	COC(=O)c1c(NC(=O)Nc2ccccc2)cc(C(C)(C)C)n1C	
70	119	CCc1ccc(NC(=O)Nc2cc(C(C)(C)C)sc2C(=O)NC)cc1	
	1200	COC(=O)c1oc(C(C)(C)C)cc1NC(=O)Nc1ccc(Cl)c(Cl)c1	
35	830	COC(=O)c1sc(C(C)(C)C)cc1NC(=O)Nc1ccc(F)cc1	
94		COC(=O)c1sc(C(C)(C)C)cc1NC(=O)Nc1ccc(C)cc1	IC50 [3]: 413 nM; IC50 [4]: 248 nM; IC50 (SW1353): 905 nM
	73	COC(=O)c1oc(C(C)(C)C)cc1NC(=O)Nc1ccc(C)cc1	IC50 (SW1353): 335 nM
99	6	COC(=O)c1[nH]c(C(C)(C)C)cc1NC(=O)Nc1cccc(Cl)c1Cl	IC50 (SW1353): 79 nM
95	44	CNC(=O)c1[nH]c(C(C)(C)C)cc1NC(=O)Nc1cccc(Cl)c1Cl	IC50 (SW1353): 16 nM
96	28	CNC(=O)c1[nH]c(C(C)(C)C)cc1NC(=O)Nc1cccc2ccccc12	IC50 (SW1353): 35 nM
97	32	COC(=O)c1oc(C(C)(C)C)cc1NC(=O)Nc1cccc(Cl)c1Cl	
63	270	CNC(=O)c1sc(C(C)(C)C)cc1NC(=O)Nc1ccc(C(C)C)cc1	
89	42	COC(=O)c1[nH]c(C(C)(C)C)cc1NC(=O)Nc1ccc(F)cc1	IC50 (SW1353): 464 nM
	32	CNC(=O)c1oc(C(C)(C)C)cc1NC(=O)Nc1ccc(C)cc1	
	44	COC(=O)c1[nH]c(C(C)(C)C)cc1NC(=O)Nc1ccccc1	
